Experimental data: US20180148452A1, “TOLL-LIKE RECEPTOR-7 AGONIST” (MEDSHINE DISCOVERY INC., priority 2014, published 2018)
pEC50: −log10 of the molar value. Where a name gives a salt, the structure may show the parent alone.

Columns and labels:
[1] = target: T1, hTLR7 (Homo sapiens, UniProt Q9NYK1); experiment: TLR7 agonist screening protocol in vitro (HEK-Blue-hTLR7 reporter, QUANTI-Blue); assay type: cell-based; conditions: HEK-Blue-hTLR7 cells, 24 hours incubation, alkaline phosphatase OD650
T1 construct: expressed in transfected cells; host or cells: HEK-Blue-hTLR7 cells (HEK293-derived SEAP reporter line)
T1 sequence (Q9NYK1 27-1049): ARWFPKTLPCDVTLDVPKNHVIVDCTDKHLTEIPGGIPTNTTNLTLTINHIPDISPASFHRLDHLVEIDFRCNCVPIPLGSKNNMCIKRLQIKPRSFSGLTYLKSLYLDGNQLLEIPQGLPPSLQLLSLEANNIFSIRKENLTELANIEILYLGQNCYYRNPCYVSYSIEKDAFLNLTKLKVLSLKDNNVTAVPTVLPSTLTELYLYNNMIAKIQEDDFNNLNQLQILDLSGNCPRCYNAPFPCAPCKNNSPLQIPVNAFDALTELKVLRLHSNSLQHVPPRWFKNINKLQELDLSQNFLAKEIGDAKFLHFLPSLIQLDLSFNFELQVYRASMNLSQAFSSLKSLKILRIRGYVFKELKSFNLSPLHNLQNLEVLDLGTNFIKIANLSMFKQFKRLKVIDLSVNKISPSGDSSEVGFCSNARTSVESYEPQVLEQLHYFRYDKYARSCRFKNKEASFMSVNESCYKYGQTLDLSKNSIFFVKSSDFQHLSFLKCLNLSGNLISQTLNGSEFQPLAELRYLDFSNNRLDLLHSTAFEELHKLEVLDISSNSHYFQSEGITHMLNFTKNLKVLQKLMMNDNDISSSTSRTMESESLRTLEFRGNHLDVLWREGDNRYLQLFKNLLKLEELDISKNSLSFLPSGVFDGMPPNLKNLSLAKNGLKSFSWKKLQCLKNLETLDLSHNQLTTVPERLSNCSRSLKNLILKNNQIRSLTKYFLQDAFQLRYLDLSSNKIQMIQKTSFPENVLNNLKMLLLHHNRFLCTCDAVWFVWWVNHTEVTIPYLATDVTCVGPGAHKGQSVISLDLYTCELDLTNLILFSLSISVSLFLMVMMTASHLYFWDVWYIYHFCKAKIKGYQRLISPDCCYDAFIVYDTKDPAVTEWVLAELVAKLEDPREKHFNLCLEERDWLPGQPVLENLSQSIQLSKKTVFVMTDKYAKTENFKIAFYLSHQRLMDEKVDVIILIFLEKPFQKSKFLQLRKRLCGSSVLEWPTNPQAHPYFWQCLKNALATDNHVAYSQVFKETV
Method: Test 1: TLR7 Agonist Screening Protocol In Vitro
1. Preparation for 96-well plate: Compounds are 3 folds serial diluted with DMSO by POD, start from 10 mM, 10 concentrations (column 2 to 11, duplicated), 1 μL DMSO per well. Take 1 μL of 5 mM R848 as positive control (column 12) and 1 μL of DMSO as negative control (column 1).
2. Harvest cells and adjust cell suspension to the density of 250,000 cells/ml.
3. 200 μL cells are seeded into the cell culture plate containing compounds with the cell density of 50,000 cells/well, the final DMSO concentration is 0.5%.
4. Incubate the plates containing the cells and compounds at 37° C., 5% CO2 for 24 hours.
5. After 24 hours' incubation, fetch 20 μL supernatant from each well to transfer to another transparent 96-well cell culture plate. Add 180 μL QUANTI-Blue to each well of the cell culture plate containing 20 μL supernatant, and incubate at 37° C., 5% CO2 for 1 hour.
6. After 1 hour, determine alkaline phosphatase levels in 20 μL supernatant by using ELIASA reading at OD650.
7. Data analysis by Prism software, EC50 of each compound was obtained.

[2] = test system: Female Balb/c mice; experiment: Induction of IFN-α and TNF-α following intranasal dosing in the mouse; assay type: in vivo; conditions: serum, 2 h after single i.n. dose; for IFN-α Conc. (1 mM): 1 mM (0.1 mpk); for IFN-α Conc. (3 mM) / TNF-α Conc. (3 mM): 3 mM (0.3 mpk); for IFN-α Conc. (10 mM) / TNF-α Conc. (10 mM): 10 mM (1 mpk); for IFN-α Conc. (30 mM) / TNF-α Conc. (30 mM): 30 mM (3 mpk)
Method: Test 3: Assay for the Induction of Interferon-α (IFN-α) and Tumor Necrosis Factor-α (TNF-α) Following Intranasal Dosing in the Mouse
Female Balb/c mice (18-20 g) were anesthetized with isoflurane and then administered intranasally (20 μL in total between the nostrils) with compounds dissolved in saline with 0.2% Tween 80. After two hours, mice were euthanased by CO2 inhalation and blood samples were taken by cardiac puncher. Then blood samples were centrifuged and serum was collected. Serum samples were tested by ELISA with appropriate dilution according to the manufacturer's instructions. In this model, compounds could induce different IFN-α/TNF-α levels related to the dose of the compounds, while no IFN-α/TNF-α was detected in vehicle treated controls.

Q: With `CCCCOc1nc(N)c2[nH]c(C#N)c(CCCCCCN3CCCC3)c2n1` [Example 19, 4-amino-2-butoxy-7-(6-(tetrahydropyrrol-1-yl)hexyl)-5H-pyrrolo[3,2-d]pyrimidine-6-carbonitrile formate] as the compound, how does the pEC50 [1] read?
A: Its pEC50 is 7.00 to 9.00.

Q: With `CCCCOc1nc(N)c2[nH]c(C#N)c(CCCCN3CCCCC3)c2n1` [Example 3, 4-amino-2-butoxy-7-(4-(piperidin-1-yl)butyl)-5H-pyrrolo[3,2-d]pyrimidine-6-carbonitrile formate] as the compound, how does the pEC50 [1] read?
A: Its pEC50 is 7.00 to 9.00.

Q: With `CCCCOc1nc(N)c2[nH]c(C#N)c(CCCCCN3CCCC3C(=O)NCC3CC3)c2n1` (stereo not shown) [Example 16, formate] as the compound, how does the pEC50 [1] read?
A: Its pEC50 is 6.60 to 7.00.

Q: How did the pEC50 [1] turn out when `CCCCOc1nc(N)c2[nH]c(C#N)c(CCCCCN3CCC(F)(F)CC3)c2n1` [Example 9, 4-amino-2-butoxy-7-(5-(4,4′-difluoro-1-piperidinyl)pentyl)-5H-pyrrolo[3,2-d]pyrimidine-6-carbonitrile formate] was run?
A: The pEC50 was 6.60 to 7.00.

Q: `CCC[C@H](C)Oc1nc(N)c2[nH]c(=O)n(CCCCCN3CCCCC3)c2n1.Cl` [GSK-2245035, reference compound] was tested. Which “IFN-α Conc. (1 mM)” value [2] did it give?
A: The value was less than 100 pg/mL.

Q: What about the “IFN-α Conc. (3 mM)” value [2] of the same compound?
A: The value was 1000 pg/mL.

Q: What about the “TNF-α Conc. (3 mM)” value [2] of the same compound?
A: Its value is less than 10 pg/mL.

Q: What about the “IFN-α Conc. (10 mM)” value [2] of the same compound?
A: The value was 3500 pg/mL.

Q: What about the “TNF-α Conc. (10 mM)” value [2] of the same compound?
A: The value was 50 pg/mL.

Q: And the “IFN-α Conc. (30 mM)” value [2]?
A: The value was 4500 pg/mL.

Q: What about the “TNF-α Conc. (30 mM)” value [2] of the same compound?
A: The value was 400 pg/mL.

Q: What about the pEC50 [1] of the same compound?
A: The pEC50 was 7.00 to 9.00.

Q: With `CCCCOc1nc(N)c2[nH]c(C#N)c(CCCCCN3CCCC3C(=O)N(C)C)c2n1` (stereo not shown) [Example 14, 4-amino-2-butoxy-7-(5-(2-(N,N′-dimethylformamido)-pyrrolidin-1-yl)pentyl)-5H-pyrrolo[3,2-d]pyrimidin-6-nitrile formate] as the compound, how does the pEC50 [1] read?
A: The pEC50 was 7.00 to 9.00.

Q: `CCCCOc1nc(N)c2[nH]c(C#N)c(CCCCCN3CCC[C@@H]3C(N)=O)c2n1` [Example 13] was tested. Which pEC50 [1] did it give?
A: The pEC50 was 7.00 to 9.00.

Q: For `CCCCOc1nc(N)c2[nH]c(C#N)c(CCCCCN3CCCCC3)c2n1` [Example 1, 4-Amino-2-butoxy-7-(5-(piperidin-1-yl)pentyl)-5H-pyrrolo[3,2-d]pyrimidine-6-carbonitrile formate], which “IFN-α Conc. (1 mM)” value [2] is on record?
A: The value was 500 pg/mL.

Q: And the “IFN-α Conc. (3 mM)” value [2]?
A: Its value is 4500 pg/mL.

Q: What about the “TNF-α Conc. (3 mM)” value [2] of the same compound?
A: The value was 100 pg/mL.

Q: And the “IFN-α Conc. (10 mM)” value [2]?
A: The value was 7500 pg/mL.

Q: And the “TNF-α Conc. (10 mM)” value [2]?
A: The value was 300 pg/mL.

Q: And the “IFN-α Conc. (30 mM)” value [2]?
A: The value was 7000 pg/mL.

Q: What about the “TNF-α Conc. (30 mM)” value [2] of the same compound?
A: The value was 500 pg/mL.

Q: And the pEC50 [1]?
A: Its pEC50 is 7.00 to 9.00.

Q: How did the pEC50 [1] turn out when `CCCCOc1nc(N)c2[nH]c(C#N)c(CCCCCN(CC)CC)c2n1` [Example 8, 4-amino-2-butoxy-7-(5-(diethylamino)pentyl)-5H-pyrrolo[3,2-d]pyrimidine-6-carbonitrile formate] was run?
A: The pEC50 was 7.00 to 9.00.

Q: With `CCCCOc1nc(N)c2[nH]c(C#N)c(CCCCCN3CCCC3)c2n1` [Example 20, 4-amino-2-butoxy-7-(5-(tetrahydropyrrol-1-yl)pentyl)-5H-pyrrolo[3,2-d]pyrimidine-6-carbonitrile hydrochloride] as the compound, how does the pEC50 [1] read?
A: Its pEC50 is 7.00 to 9.00.

Q: With `CCCCOc1nc(N)c2[nH]c(C#N)c(CCCCCN3CCN(C)CC3)c2n1` [Example 6, 4-amino-2-butoxy-7-(5-(4-methylpiperazin-1-yl)pentyl)-5H-pyrrolo[3,2-d]pyrimidine-6-carbonitrile formate] as the compound, how does the pEC50 [1] read?
A: The pEC50 was 7.00 to 9.00.

Q: With `CCCCOc1nc(N)c2[nH]c(C#N)c(CCCCCN3CCCCC3C(N)=O)c2n1` (stereo not shown) [Example 17, hydrochloride] as the compound, how does the pEC50 [1] read?
A: The pEC50 was 7.00 to 9.00.

Q: `CCCCOc1nc(N)c2[nH]c(C#N)c(CCCCC3CCCCN3)c2n1` (stereo not shown) [Example 22, 4-amino-2-butoxy-7-(4-(piperidin-2-yl)butyl)-5H-pyrrolo[3,2-d]pyrimidine-6-carbonitrile formate] was tested. Which pEC50 [1] did it give?
A: Its pEC50 is 6.60 to 7.00.

Q: `CCCCOc1nc(N)c2[nH]c(C#N)c(CCCCCN3CCN(C)CC3=O)c2n1` [Example 11, 4-amino-2-butoxy-7-(5-(4-methyl-2-oxopiperazin-1-yl)pentyl)-5H-pyrrolo[3,2-d]pyrimidine-6-carbonitrile formate] was tested. Which pEC50 [1] did it give?
A: The pEC50 was 6.60 to 7.00.

Q: With `CCCCOc1nc(N)c2[nH]c(C#N)c(CCCCC3CCCCN3C(=O)NC)c2n1` (stereo not shown) [Example 23, 4-amino-2-butoxy-7-(4-(1-(1-N-methylcarbonyl)piperidin-2-yl)butyl)-5H-pyrrolo[3,2-d]pyrimidin-6-nitrile] as the compound, how does the pEC50 [1] read?
A: The pEC50 was 6.60 to 7.00.

Q: How did the pEC50 [1] turn out when `CCCCOc1nc(N)c2[nH]c(C#N)c(CCCCCN3CC4CC3CN4C)c2n1` (stereo not shown) [Example 7, 4-amino-2-butoxy-7-(5-(5-methyl-2,5-diazabicyclo[2.2.1]heptan-2-yl)pentyl)-5H-pyrrolo[3,2-d]pyrimidine-6-carbonitrile formate] was run?
A: The pEC50 was 6.30 to 6.60.

Q: How did the pEC50 [1] turn out when `CCCCOc1nc(N)c2[nH]c(C#N)c(CCCCCN3CCOCC3)c2n1` [Example 4, 4-amino-2-butoxy-7-(5-morpholin-1-yl)pentyl)-5H-pyrrolo[3,2-d]pyrimidine-6-carbonitrile formate] was run?
A: The pEC50 was 7.00 to 9.00.

Q: `CCC[C@H](C)Oc1nc(N)c2[nH]c(C#N)c(CCCCCN3CCCCC3)c2n1` [Example 2, (S)-4-amino-(1-methylbutoxy)-7-(5-(piperidin-1-yl)pentyl)-5H-pyrrolo[3,2-d]pyrimidine-6-carbonitrile formate] was tested. Which pEC50 [1] did it give?
A: The pEC50 was 7.00 to 9.00.

Q: `CCCCOc1nc(N)c2[nH]c(C#N)c(CCCCCN3CC4CCC(C3)N4C)c2n1` [Example 21, 4-amino-2-butoxy-7-(5-(8-methyl-3,8-diazabicyclo[3.2.1]octan-3-yl)pentyl)-5H-pyrrolo[3,2-d]pyrimidine-6-carbonitrile formate] was tested. Which pEC50 [1] did it give?
A: The pEC50 was 6.60 to 7.00.

Q: How did the pEC50 [1] turn out when `CCCCOc1nc(N)c2[nH]c(C#N)c(CCCCCN3CCCC3C(=O)N3CCN(C)CC3)c2n1` (stereo not shown) [Example 15, 4-amino-2-butoxy-7-(5-((2-(4-methylpiperazine-1-carbonyl)pyrrolidin-1-yl)pentyl)-5H-pyrrolo[3,2-d]pyrimidine-6-carbonitrile formate] was run?
A: The pEC50 was 6.60 to 7.00.

Q: With `CCCCOc1nc(N)c2[nH]c(C#N)c(CCCC3CCN(C)CC3)c2n1` [Example 24, 4-amino-2-butoxy-7-(3-(1-methylpiperidin-4-yl)propyl)-5H-pyrrolo[3,2-d]pyrimidine-6-carbonitrile formate] as the compound, how does the pEC50 [1] read?
A: The pEC50 was 7.00 to 9.00.

Q: `CCCCOc1nc(N)c2[nH]c(C#N)c(CCCCCN3CC4(COC4)C3)c2n1` [Example 5, 7-(5-(2-oxa-6-azaspiro[3.3]heptan-6-yl)pentyl)-4-amino-2-butoxy-5H-pyrrolo[3,2-d]pyrimidine-6-carbonitrile formate] was tested. Which pEC50 [1] did it give?
A: The pEC50 was 7.00 to 9.00.

Q: How did the pEC50 [1] turn out when `CCCCOc1nc(N)c2[nH]c(C#N)c(CCCCCNC(C(N)=O)C(C)C)c2n1` (stereo not shown) [Example 18, 4-amino-2-butoxy-7-(5-((1-formamido-1′-isopropyl)amino)pentyl)-5H-pyrrolo[3,2-d]pyrimidine-6-carbonitrile hydrochloride] was run?
A: Its pEC50 is 7.00 to 9.00.
